Test results: patent US20130023535A1, “METHOD OF PREVENTING AND/OR TREATING DIABETIC NEUROPATHY” (Astellas Pharma Inc., priority 2007, published 2013)
Where two headings read alike, the source gives them in different places.

Experiments:
[1] = system: insulin-like growth factor 1 (IGF-1); assay: Quantitative PCR of neurotrophic factor expression, dorsal root ganglia of STZ-induced diabetic rats; format: in vivo, rat; settings: 30 mg/kg
Method: (§1) In order to verify whether (+)-2-[(1H-inden-7-yloxy)methyl]morpholine hydrochloride acts on the expression levels of neurotrophic factors, an improving effect of (+)-2-[(inden-7-yloxy)methyl]morpholine hydrochloride on a decrease in the expression levels of neurotrophic factors in the spinal cord and the dorsal root ganglia of STZ-induced diabetic rats was examined.
(§2) The expression levels of neurotrophic factors were measured in the animals on day 7 to 8 of cessation of the drug withdrawal after the repeated daily administration in each of the Normal group, the vehicle administration group (STZ-induced diabetic rats) and the drug administration group at a dose of 30 mg/kg (STZ-induced diabetic rats) in Example 2. The spinal cord lumbar region and the dorsal root ganglia (L4, L5, and L6) were excised and the total RNA was extracted from the excised specimens using an RNA extraction kit RNeasy (Qiagen). […] A quantitative PCR analysis was performed for the obtained cDNA using primers to fibroblast growth factor 2 (FGF-2), insulin-like growth factor 1 (IGF-1), and glyceraldehyde-3-phosphate dehydrogenase (G3PDH) by PRISM 7900 (ABI). […] The improving effect on a decrease in the expression levels of neurotrophic factors were determined based on the recovery on the expression levels of neurotrophic factors in the drug administration group as compared with the vehicle administration group. […]

[2] = system: STZ (streptozotocin)-induced diabetic rats; settings: vs vehicle group
Method: STZ (streptozotocin)-induced diabetic rats were prepared according to the following procedure. STZ (45 mg/kg) was intravenously administered to rats at the age of 7 weeks. At week 2 after administration of STZ, the blood was collected from the tail vein and the blood glucose level was measured to confirm that the blood glucose level was increased to 300 mg/dl or more. In the administration group, the rats were grouped so as to minimize the variation in the mean values of body weight, blood glucose level and pain response threshold measured on the previous day of the administration of the drug. A non-administration group of STZ was separately prepared and used as Normal group. A test drug was orally administered once daily for 28 consecutive days. Paresthesia due to neuropathy was determined by a von Frey Test (pain threshold test) at two time points, at 1 hour after administration on day 28 and on day 7 of cessation of the drug after the last administration (Pain, vol. 53, pp. 81-88, 1993). The test was initiated after the rats were placed in a cage for observation and acclimated for at least 20 minutes. By using a digital von Frey Test model 2390 (manufactured by IITC Inc.), a tip end was lightly applied to a paw. When there was no response, an applied load was increased from 1 to 3 g. The pain threshold was determined as an applied load (g) at which an avoidance response such as paw withdrawal was observed. In each animal, the measurement was performed twice for each of the left and right paws, and the mean of the 4 values was calculated as a withdrawal threshold (g). The improvement of paresthesia was determined based on the recovery of the withdrawal threshold in a drug administration group as compared with a vehicle (distilled water) administration group. Statistical test was performed between the vehicle administration group and the drug administration groups. For confirming the onset of diabetic neuropathy, a Student's t-test was also performed to compare the vehicle administration group and the Normal group.

[3] = system: fibroblast growth factor 2 (FGF-2); assay: Quantitative PCR of neurotrophic factor expression, spinal cord lumbar region of STZ-induced diabetic rats; format: in vivo, rat; settings: 30 mg/kg
Method: as §1, §2

Cytochrome P-450 (1A2) = molecular target: T1, Cytochrome P-450 (1A2) (Homo sapiens, UniProt P05177); assay: Test for Cytochrome P-450 (1A2) enzyme inhibition using human liver microsomes; format: in vitro ADME
T1 construct: 0.2 mg protein/mL human liver microsomes; from tissue; host or cells: human liver microsomes
T1 sequence (P05177 1-516): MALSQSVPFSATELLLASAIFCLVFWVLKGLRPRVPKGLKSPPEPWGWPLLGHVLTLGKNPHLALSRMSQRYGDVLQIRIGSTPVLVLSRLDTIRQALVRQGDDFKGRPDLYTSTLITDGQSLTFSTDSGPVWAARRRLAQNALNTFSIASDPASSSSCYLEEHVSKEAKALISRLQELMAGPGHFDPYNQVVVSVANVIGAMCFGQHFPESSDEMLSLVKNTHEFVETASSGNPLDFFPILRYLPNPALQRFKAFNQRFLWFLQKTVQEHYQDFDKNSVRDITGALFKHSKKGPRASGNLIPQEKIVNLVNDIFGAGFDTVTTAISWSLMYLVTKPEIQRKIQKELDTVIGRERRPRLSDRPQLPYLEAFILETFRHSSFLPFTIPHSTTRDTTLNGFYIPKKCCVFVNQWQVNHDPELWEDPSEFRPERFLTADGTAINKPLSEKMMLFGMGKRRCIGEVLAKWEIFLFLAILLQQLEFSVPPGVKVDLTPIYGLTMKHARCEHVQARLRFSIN
Method: An experiment was performed according to the method of Rae Yuan et al. (Drug Metabolism and Disposition, 30(12), 1311-1319, 2002).
By using a 96-well plate, a test drug (0.3 to 10 μmol/L) was added to 100 mmol/L Na-K phosphate buffer (pH=7.4) containing 0.1 mmol/L ethylenediaminetetraacetic acid (EDTA), 1 mmol/L nicotinamide adenine dinucleotide phosphate (NADPH), and 0.2 mg protein/mL human liver microsomes, and the total volume was made up to 145 μL, and then, preincubation of the resulting mixture was started at 37° C. At 5 minutes after the start of preincubation, phenacetin (20 mmol/L) was added thereto as a substrate for P450(1A2), and the total volume was made up to 150 μL, and then, the resulting mixture was incubated at 37° C. for 20 minutes. Thereafter, 130 μL of acetonitrile was added to the sample to stop the reaction. For the sample in which the reaction was stopped, the concentration of acetaminophen which is a metabolite of phenacetin was determined using LC/MS/MS.
A production amount of acetaminophen in the absence of the test drug was taken as 100%, and a production amount of acetaminophen in the presence of the test drug was calculated for each concentration of the test drug. Based on the calculated production amount for each concentration of the test drug, a concentration of the test drug at which the production amount of acetaminophen was 50% (IC50 value) was calculated from the following equation. The test was performed for two cases, and a mean value was used for the calculation of each value.
Production amount [I] (%)=100/(1+[I]/IC50)
Production amount [I] (%): (Production amount of acetaminophen when the test compound concentration was [I])/(Production amount of acetaminophen in the absence of test compound)×100

[4] = system: STZ-induced diabetic rats; assay: Motor nerve conduction velocity (MNCV) in STZ-induced diabetic rats; format: in vivo, rat; settings: 30 mg/kg
Method: The measurement was performed using the method of Cameron et al. (The Journal of Experimental Physiology, vol. 74, pp. 917-926, 1989) with some modification.
1 were used. Further, the same test was performed also for the Normal group. The rats were anesthetized with sodium pentobarbital, and the temperature of the rectum was maintained at about 37.5° C. using a body temperature maintenance device for small animals, and then, the MNCV was measured using an evoked potential measurement device. First, a positive stimulating electrode was attached to a dorsal region. […] Then, an average waveform evoked by the stimulation was derived from bipolar recording electrodes inserted into a gastrocnemius muscle region of the hind limb of the same side, and the latency (sec) from the start of stimulation to the first deflection of an M-wave was measured. Thereafter, the tibial nerve around behind the knee was stimulated with a negative stimulating electrode in the same manner as above, and the latency (sec) was measured in the same manner as in the gastrocnemius muscle region. A value obtained by dividing a distance (m) between the two regions stimulated with the negative stimulating electrode by a difference (sec) in the M-wave latency measured in the above two stimulation experiments was determined to be an MNCV value. […]

[5] = 30 mg/kg orally once daily for 28 days, measured on day 7 of cessation of drug
[6] = 30 mg/kg orally once daily, day 28 of repeated administration, 1 hour after administration

Row | Structure (SMILES) | effect on the decrease in the expression level of IGF-1 [1] | relative gene expression level of IGF-1 normalized by G3PDH ([1]; p.o., day 7 to 8 of cessation, mean ± SEM, Normal 100.0, Vehicle 54.6) | effect on the decrease in the withdrawal threshold (von Frey test) [2, 5] | effect on the decrease in the withdrawal threshold (von Frey test) [2, 6] | effect on the decrease in the expression level of FGF-2 [3] | relative gene expression level of FGF-2 normalized by G3PDH ([3]; p.o., day 7 to 8 of cessation, mean ± SEM, Normal 100.0, Vehicle 66.9) | CYP inhibitory activity (Cytochrome P-450 (1A2)) | possibility of drug-drug interaction by oral administration (Cytochrome P-450 (1A2); from difference between IC50 and Cmax at oral administration) | IC50 (Cytochrome P-450 (1A2); human liver microsomes, substrate phenacetin, acetaminophen production, mean of two cases) [µM] | MNCV ([4]; p.o., day 7 to 8 of drug withdrawal after repeated daily administration, mean ± SEM, Normal 62.4, Vehicle 49.4) [m/s] | improving effect on a decrease in MNCV ([4]; vs vehicle group)
1 | C1=Cc2cccc(OCC3CNCCO3)c2C1.Cl (single isomer, unassigned; (+)) [(+)IDX, (+)-2-[(1H-inden-7-yloxy)methyl]morpholine hydrochloride] | significantly recovers the decrease in the expression levels | 67.7 ± 3.2 | significantly restored the decrease in the withdrawal threshold | significantly restored the decrease in the withdrawal threshold | significantly recovers the decrease in the expression levels | 103.5 ± 4.9 | extremely weak | extremely low | 8.1 | 53.3 ± 1.1 | significant improving effect
2 | C1=Cc2cccc(OCC3CNCCO3)c2C1.Cl (racemic) [(±)-2-[(inden-7-yloxy)methyl]morpholine hydrochloride] |  |  | significantly restored the decrease in the withdrawal threshold | significantly restored the decrease in the withdrawal threshold |  |  |  |  |  |  | 
